The values below come from patent US20260191835A1, “COMBINATIONS COMPRISING A MENIN-MLL INHIBITOR AND AT LEAST ONE OTHER THERAPEUTIC AGENT” (JANSSEN PHARMACEUTICA NV, priority 2022, published 2026).

This assay has as its system MOLM-13 tumors. Briefly: Efficacy (survival) in disseminated MOLM-13 (KMT2A-rearranged) model in NSG mice. The format is in vivo. The settings on record: NSG mice bearing established MOLM-13 tumors, vs vehicle; Azacitidine 2 mg/kg ip QD × 7; Compound 51 2 mg/kg po QD × 28; n = 10. The protocol:
4) Efficacy of Menin-MLL Inhibitor in Combination with Azacitidine in MOLM-13 (KMT2A-Rearranged) Model in NSG Mice
Compound 51 was formulated in purified pyrogen-free deionized water, pH 4.0 and prepared to reach a total volume of 8 mL/kg. Doses were adjusted by individual body weight each day. Working stocks of Compound 51 were prepared once per week for each study and stored at 25° C.
Female NSG (NOD.Cg-Prkdc^scid Il2rg^tm1Wjl/SzJ) mice were used when they were approximately 6 to 8 weeks of age and weighed approximately 25 g. All animals could acclimate and recover from any shipping-related stress for a minimum of 7 days prior to experimental use. […]
Animals were monitored daily for clinical signs related to either compound toxicity or tumor burden (i.e., hind limb paralysis, lethargy, etc.).
For survival assessment, results were plotted as the percentage survival against days post tumor implant. […] Median survival was determined utilizing Kaplan-Meier survival analysis. The percent increased life span (ILS) was calculated as: ((median survival day of treated group−median survival day of control group)/median survival day of control group)×100. […]
Survival and body weight data were graphically represented utilizing Prism (Version 9). Statistical significance for body weights was evaluated as described above. […]

For `CC(=O)N1CCC(CN2CC[C@@H](Cc3cn(-c4ccc(F)cc4C(=O)N(C)C(C)C)c4cncc(C)c34)C2)CC1` [Compound 51], the “% ILS (increased life span)” value is recorded as “*5%”.
